Results from patent US8802623B2 (priority 2009, dated 2014).

Key:
[1] = mouse, in vivo
IAV A/PR/8/34 [2] = test system: IAV A/PR/8/34; design: species or system C57BL/6 mice; details: mouse, in vivo
IAV A/PR/8/34 [3] = format: cell-based, IAV A/PR/8/34 (H1N1)
[4] = test system: A549 cells infected with IAV A/PR/8/34; format: cell-based, human
IAV A/PR/8/34 [5] = test system: IAV A/PR/8/34; design: species or system C57BL/6 mice; details: mouse, in vivo; remark: listed apart in the source

Row | Compound | side effect in uninfected mice (survival, weight) [1] | infectious virus loads in lungs (IAV A/PR/8/34 [2]) | virus production in IAV-infected A549 cells (IAV A/PR/8/34 [3]) | IL-6 release [4] | IL-8 release [4] | RANTES release [4] | IAV-induced death in mice (IAV A/PR/8/34 [5]) | infectious virus load in lungs (IAV A/PR/8/34 [2]) | protection from IAV induced death, different concentrations (IAV A/PR/8/34 [5]) | protection from IAV-induced death at different pfu/mice (IAV A/PR/8/34 [5])
1 | H-Thr-Phe-Leu-Leu-Arg-NH2 [TFLLR-NH2] | not sensitive | significantly increased infectious virus loads | produced more viruses | significantly increased | significantly increased | significantly increased | increased IAV-induced death | – | – | –
2 | CC(C)c1ccc(Cn2ccc3c4c(N)nc(NC5CC5)nc4ccc32)cc1 [SCH79797] | – | – | – | – | – | – | – | significantly decreased infectious virus load | protected mice from IAV induced death in a dose-dependent manner | protected mice from IAV-induced death
